In the supplement of paper PMC10307832:

Compound: CCOC(=O)CCNc1cc(N2CCc3ccccc3CC2)nc(-c2ccccn2)n1 [GSK-J4] + O=C(CCCCCCC(=O)Nc1ccccc1)NO [Vorinostat] (partner 1 µM)
Test: relative viability (nuclei count vs DMSO), 5 days (fraction); higher = more cells survive
Conditions: first compound 0.5 µM
Summary of the method: (§1)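 Lung cancer cell lines were pin-tool dosed in 1536-well plates on the day after seeding, with either a lone drug or a fixed anchor-drug dose plus five library-drug doses (not always all listed) in √10 steps. Nuclei were counted on 4× images after 5 days. Relative viability is the ratio of treated-well to vehicle-well nuclei counts, with each value a median of duplicate plates.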

First: NCI-H2009
Second: ABC-1
The relative viability of the first is lower: 0.731 for the first, 1.2 for the second.

Going from SK-MES-1 to NCI-H727, the relative viability rises from 0.986 to 1.13.

SW 1573 showed a relative viability of 0.817.

Same assay, conditions: first compound 1.581 µM

Compared with NCI-H2009, ABC-1 is higher in relative viability: 0.622 for the first, 1.31 for the second.

Compared with SK-MES-1, NCI-H727 is higher in relative viability: 0.968 for the first, 0.991 for the second.

With SW 1573 the relative viability was 0.396.

Same assay, conditions: first compound 5 µM

First: NCI-H2009
Second: ABC-1
The relative viability of the first is lower: 0.56 for the first, 0.879 for the second.

Going from SK-MES-1 to NCI-H727, the relative viability rises from 1.04 to 1.45.

With SW 1573 the relative viability was 0.406.

Same assay, conditions: first compound 15.81 µM

Going from NCI-H2009 to ABC-1, the relative viability rises from 0.682 to 0.704.

Compared with SK-MES-1, NCI-H727 is lower in relative viability: 1.04 for the first, 1.03 for the second.

In the case of SW 1573, the relative viability is reported as 0.845.

Same assay, conditions: first compound 50 µM

Going from NCI-H2009 to ABC-1, the relative viability rises from 0.259 to 0.555.

Going from SK-MES-1 to NCI-H727, the relative viability rises from 0.524 to 0.758.

With SW 1573 the relative viability was 0.276.

Compound: CN1CCC(CC1)OC2=CC(=C(C=C2)NC3=NC=C4C(=N3)N(C(=O)N4C)C5CCCC5)OC [AZ3146] + Cc1cc(Nc2cc(N3CCN(C)CC3)nc(Sc3ccc(NC(=O)C4CC4)cc3)n2)n[nH]1 [Tozasertib] (partner 0.1 µM)
Test: as above
Conditions: first compound 0.08 µM
Summary of the method: as §1

Going from NCI-H2009 to ABC-1, the relative viability falls from 0.669 to 0.173.

Compared with SK-MES-1, NCI-H727 is lower in relative viability: 0.891 for the first, 0.546 for the second.

In the case of SW 1573, the relative viability is reported as 0.208.

Same assay, conditions: first compound 0.253 µM

Going from NCI-H2009 to ABC-1, the relative viability falls from 0.689 to 0.178.

First: SK-MES-1
Second: NCI-H727
The relative viability of the first is higher: 0.97 for the first, 0.495 for the second.

SW 1573 gave a relative viability of 0.162.

Same assay, conditions: first compound 0.8 µM

Going from NCI-H2009 to ABC-1, the relative viability falls from 0.463 to 0.181.

Going from SK-MES-1 to NCI-H727, the relative viability falls from 0.77 to 0.455.

SW 1573 was tested, and the relative viability was 0.179.

Same assay, conditions: first compound 2.53 µM

First: NCI-H2009
Second: ABC-1
The relative viability of the first is higher: 0.557 for the first, 0.135 for the second.

First: SK-MES-1
Second: NCI-H727
The relative viability of the first is lower: 0.276 for the first, 0.575 for the second.

In the case of SW 1573, the relative viability is reported as 0.164.

Same assay, conditions: first compound 8 µM

Going from NCI-H2009 to ABC-1, the relative viability falls from 0.434 to 0.2.

Compared with SK-MES-1, NCI-H727 is higher in relative viability: 0.211 for the first, 0.439 for the second.

With SW 1573 the relative viability was 0.195.

Compound: CCOC(=O)CCNc1cc(N2CCc3ccccc3CC2)nc(-c2ccccn2)n1 [GSK-J4] + Cc1nc(Nc2ncc(C(=O)Nc3c(C)cccc3Cl)s2)cc(N2CCN(CCO)CC2)n1 [Dasatinib] (partner 0.075 µM)
Test: as above
Conditions: first compound 0.5 µM
Summary of the method: as §1

Compared with NCI-H2009, ABC-1 is higher in relative viability: 0.298 for the first, 0.47 for the second.

Compared with SK-MES-1, NCI-H727 is lower in relative viability: 0.392 for the first, 0.338 for the second.

SW 1573 was tested, and the relative viability was 0.326.

Same assay, conditions: first compound 1.581 µM

First: NCI-H2009
Second: ABC-1
The relative viability of the first is lower: 0.276 for the first, 0.546 for the second.

Compared with SK-MES-1, NCI-H727 is lower in relative viability: 0.348 for the first, 0.305 for the second.

SW 1573 was tested, and the relative viability was 0.42.

Same assay, conditions: first compound 5 µM

Compared with NCI-H2009, ABC-1 is higher in relative viability: 0.166 for the first, 0.465 for the second.

Compared with SK-MES-1, NCI-H727 is higher in relative viability: 0.334 for the first, 0.522 for the second.

Work on SW 1573 yielded a relative viability of 0.348.

Same assay, conditions: first compound 15.81 µM

Going from NCI-H2009 to ABC-1, the relative viability rises from 0.265 to 0.598.

Going from SK-MES-1 to NCI-H727, the relative viability rises from 0.24 to 0.298.

Cell Line SW 1573 has a relative viability of 0.362.

Same assay, conditions: first compound 50 µM

Compared with NCI-H2009, ABC-1 is higher in relative viability: 0.189 for the first, 0.297 for the second.

Compared with SK-MES-1, NCI-H727 is lower in relative viability: 0.358 for the first, 0.223 for the second.

SW 1573 was tested, and the relative viability was 0.246.

Compound: CCOC(=O)CCNc1cc(N2CCc3ccccc3CC2)nc(-c2ccccn2)n1 [GSK-J4] + CCNC(=O)c1noc(-c2cc(C(C)C)c(O)cc2O)c1-c1ccc(CN2CCOCC2)cc1 [Luminespib] (partner 0.01 µM)
Test: as above
Conditions: first compound 0.5 µM
Summary of the method: as §1

Compared with NCI-H2009, ABC-1 is lower in relative viability: 1.05 for the first, 0.373 for the second.

First: SK-MES-1
Second: NCI-H727
The relative viability of the first is higher: 0.695 for the first, 0.299 for the second.

With SW 1573 the relative viability was 0.199.

Same assay, conditions: first compound 1.581 µM

First: NCI-H2009
Second: ABC-1
The relative viability of the first is higher: 0.918 for the first, 0.496 for the second.

First: SK-MES-1
Second: NCI-H727
The relative viability of the first is higher: 0.731 for the first, 0.402 for the second.

SW 1573 gave a relative viability of 0.0964.

Same assay, conditions: first compound 5 µM

First: ABC-1
Second: SK-MES-1
The relative viability of the first is lower: 0.594 for the first, 0.718 for the second.

Compared with NCI-H727, SW 1573 is higher in relative viability: 0.244 for the first, 0.268 for the second.

Same assay, conditions: first compound 15.81 µM

Going from NCI-H2009 to ABC-1, the relative viability falls from 0.938 to 0.52.

Going from SK-MES-1 to NCI-H727, the relative viability falls from 0.686 to 0.336.

SW 1573 gave a relative viability of 0.213.

Same assay, conditions: first compound 50 µM

Compared with NCI-H2009, ABC-1 is lower in relative viability: 0.407 for the first, 0.396 for the second.

Compared with SK-MES-1, NCI-H727 is lower in relative viability: 0.37 for the first, 0.369 for the second.

With SW 1573 the relative viability was 0.148.
